Earlier results as cited in patent US20080020052A1, “Vascular Embolus Of Paclitaxel-Sodium Alginate Microsphere And Its Preparation” (priority 2004, published 2008).

CC(=O)O[C@H]1C(=O)[C@@]2(C)[C@H]([C@H](OC(=O)c3ccccc3)[C@]3(O)C[C@H](OC(=O)[C@H](O)[C@@H](NC(=O)c4ccccc4)c4ccccc4)C(C)=C1C3(C)C)[C@]1(OC(C)=O)CO[C@@H]1C[C@@H]2O [Paclitaxel, paclitaxel]
plasma and protein binding ratio: 89-98%
